This assay deals with HCV replicon, genotype-1a variant with glutamine 30 changed to glutamate in the NS5A protein. As to the kind of experiment: microbe, parasite or virus in culture. Type of assay: cell-based, HCV genotype 1a. Conditions: for Fold-Synergistic 1a (Q30E): HCV replicon genotype 1a Q30E (Q→E) variant, test compound titrated with an NS5A-targeting compound (BMS-790052 fixed at 200 nM), ranking of synergist activity; for EC50: Hepatitis C virus. The essentials:
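Synergy was assessed by combining several fixed amounts of an NS5A-targeting compound with a titration of the second compound of interest.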
For orientation: In antiviral work, replicon cells carry a viral genome segment that copies itself.

SMILES strings stand for the structures. Where two headings read alike, the source gives them in different places.

One may read the EC50 as the concentration needed to bring the measured effect to its halfway point.

In the case of `CC(C)(C)[C@H](NC(=O)C1CCC(=C(F)F)CC1)c1nc(-c2ccc(-c3ccc(-c4c[nH]c([C@@H](NC(=O)C5CCC(=C(F)F)CC5)C(C)(C)C)n4)cc3)cc2)c[nH]1` (some centres unmarked) [Compound N-121], the “Fold-Synergistic 1a (Q30E)” value was above 100 fold.
On the same count and under the same terms, next, `CC(C)(C)[C@H](NC(=O)C1CCC2(CC1)CC2)c1nc(-c2ccc(-c3ccc(-c4c[nH]c([C@@H](NC(=O)C5CCC6(CC5)CC6)C(C)(C)C)n4)cc3)cc2)c[nH]1` (some centres unmarked) [Compound N-123]: above 100 fold.
Same read-out and setting: next, `COC(=O)N[C@H](C(=O)N[C@H](c1nc(-c2ccc3cc(-c4ccc(-c5cnc([C@@H](NC(=O)[C@@H](NC(=O)OC)C(C)C)C(C)C)[nH]5)cc4)ccc3c2)c[nH]1)C(C)C)C(C)C` [Compound P-1]: below 10 fold; `CC(C)CC(=O)N[C@H](c1nc(-c2ccc3cc(-c4ccc(-c5cnc([C@@H](NC(=O)CC(C)C)C(C)C)[nH]5)cc4)ccc3c2)c[nH]1)C(C)C` [Compound P-2]: above 10 fold.
On the same count and under the same terms, next, `COC(=O)N[C@H](C(=O)N[C@H](c1nc(-c2ccc(-c3ccc(-c4c[nH]c([C@@H](NC(=O)[C@@H](NC(=O)OC)C(C)C)C5CC5)n4)cc3)cc2)c[nH]1)C1CC1)C(C)C` [Compound P-3]: above 10 fold.
As for `CC(C)CC(=O)N[C@@H](CC(C)(C)C)c1nc(-c2ccc(-c3ccc(-c4c[nH]c([C@H](CC(C)(C)C)NC(=O)CC(C)C)n4)cc3)cc2)c[nH]1` [Compound P-4], the “Fold-Synergistic 1a (Q30E)” value was above 10 fold.
The same measure, in the same setting: the value for `CC(C)CC(=O)N[C@@H](c1ccccc1)c1nc(-c2ccc(-c3ccc(-c4c[nH]c([C@@H](NC(=O)CC(C)C)c5ccccc5)n4)cc3)cc2)c[nH]1` [Compound P-5] was above 100 fold; that for `CC(C)CC(=O)N[C@@H](Cc1ccccc1)c1nc(-c2ccc(-c3ccc(-c4c[nH]c([C@H](Cc5ccccc5)NC(=O)CC(C)C)n4)cc3)cc2)c[nH]1` [Compound P-6] was above 10 fold; that for `CC(C)CC(=O)N[C@@H](Cc1cccc2ccccc12)c1nc(-c2ccc(-c3ccc(-c4c[nH]c([C@H](Cc5cccc6ccccc56)NC(=O)CC(C)C)n4)cc3)cc2)c[nH]1` [Compound P-7] was below 10 fold.
The same measure, in the same setting: next, `CC(C)CC(=O)N[C@@H](Cc1ccc2ccccc2c1)c1nc(-c2ccc(-c3ccc(-c4c[nH]c([C@H](Cc5ccc6ccccc6c5)NC(=O)CC(C)C)n4)cc3)cc2)c[nH]1` [Compound P-8]: below 10 fold.
On the same count and under the same terms, next, `COC(C)(C)[C@H](NC(=O)C(C)(C)C)c1nc(-c2ccc(-c3ccc(-c4c[nH]c([C@@H](NC(=O)C(C)(C)C)C(C)(C)OC)n4)cc3)cc2)c[nH]1` [Compound P-9]: above 100 fold; `COC(C)(C)[C@H](NC(=O)C(C)(C)CF)c1nc(-c2ccc(-c3ccc(-c4c[nH]c([C@@H](NC(=O)C(C)(C)CF)C(C)(C)OC)n4)cc3)cc2)c[nH]1` [Compound P-10]: above 100 fold.
For the compound `COc1cccc2c(C(=O)N3C(c4ncc(-c5ccc(-c6ccc(-c7cnc(C8C[C@H]9C[C@H]9N8C(=O)c8nc(Cl)cc9c(OC)cccc89)[nH]7)cc6)cc5)[nH]4)C[C@H]4C[C@H]43)nc(Cl)cc12` (some centres unmarked) [Compound P-49], the “Fold-Synergistic 1a (Q30E)” value is above 100 fold.
Still for that read-out and setting: next, `CC(C)C(c1ncc(-c2ccc(-c3ccc(-c4cnc(C(C(C)C)N5CCCCC5=O)[nH]4)cc3)cc2)[nH]1)N1CCCCC1=O` (centres unmarked) [Compound P-52]: above 10 fold.
Take `CC(C)CC(=O)N[C@H](c1ncc(-c2ccc(-c3ccc(-c4cnc([C@@H](NC(=O)CC(C)C)C(C)C)[nH]4)cc3)cc2)[nH]1)C(C)C` [Compound P-55]: the EC50 reads like this: (genotype 1a Q30E replicon, BMS-790052 fixed at 200 nM, read-out: EC50 of P-55 in the presence of a fixed amount of BMS-790052) around 2 nM; (genotype 1a Q30E replicon, compound alone, read-out: EC50, titrated singly) above 200 nM. Besides, the “synergistic inhibitory effect with the combination” value (genotype 1a Q30E replicon, P-55 titrated with 200 nM BMS-790052) is reported as above 100 fold.
For `CC1([C@H](NC(=O)[C@H]2C[C@@H]3CC(F)(F)C[C@@H]3C2)c2nc(-c3ccc(-c4ccc(-c5c[nH]c([C@@H](NC(=O)[C@H]6C[C@@H]7CC(F)(F)C[C@@H]7C6)C6(C)CC6)n5)cc4)cc3)c[nH]2)CC1` [Compound P-140], the “Fold-Synergistic 1a (Q30E)” value is recorded as above 100 fold.
Consider `CO[C@](C(=O)N[C@H](c1nc(-c2ccc(-c3ccc(-c4c[nH]c([C@@H](NC(=O)[C@@](OC)(c5ccccc5)C(F)(F)F)C(C)(C)C)n4)cc3)cc2)c[nH]1)C(C)(C)C)(c1ccccc1)C(F)(F)F` [Compound P-141], for which the “Fold-Synergistic 1a (Q30E)” value is listed as above 100 fold.
On the same count and under the same terms, next, `CC(C)(CF)C(=O)N[C@H](c1nc(-c2ccc(-c3ccc(-c4c[nH]c([C@@H](NC(=O)C(C)(C)CF)C5(C)CC5)n4)cc3)cc2)c[nH]1)C1(C)CC1` [Compound P-143]: above 100 fold.
The same measure, in the same setting: the value for `CC1([C@H](NC(=O)C(C)(C)C2(O)CCC(F)(F)CC2)c2nc(-c3ccc(-c4ccc(-c5c[nH]c([C@@H](NC(=O)C(C)(C)C6(O)CCC(F)(F)CC6)C6(C)CC6)n5)cc4)cc3)c[nH]2)CC1` [Compound P-144] was above 100 fold; that for `CC(C)(C)[C@H](NC(=O)C1(C2(O)CCC(F)(F)CC2)CC1)c1nc(-c2ccc(-c3ccc(-c4c[nH]c([C@@H](NC(=O)C5(C6(O)CCC(F)(F)CC6)CC5)C(C)(C)C)n4)cc3)cc2)c[nH]1` [Compound P-146] was above 100 fold.
Still for that read-out and setting: the value for `CC1([C@H](NC(=O)C2(C3(O)CCC(F)(F)CC3)CC2)c2nc(-c3ccc(-c4ccc(-c5c[nH]c([C@@H](NC(=O)C6(C7(O)CCC(F)(F)CC7)CC6)C6(C)CC6)n5)cc4)cc3)c[nH]2)CC1` [Compound P-147] was above 100 fold; that for `CC(C)(C)[C@H](NC(=O)C1(C(=O)N2CCC(F)(F)CC2)CC1)c1nc(-c2ccc(-c3ccc(-c4c[nH]c([C@@H](NC(=O)C5(C(=O)N6CCC(F)(F)CC6)CC5)C(C)(C)C)n4)cc3)cc2)c[nH]1` [Compound P-148] was above 100 fold; that for `CC(C)(C)[C@H](NC(=O)[C@@]1(C)C[C@H]2CC(F)(F)C[C@H]2C1)c1nc(-c2ccc(-c3ccc(-c4c[nH]c([C@@H](NC(=O)[C@@]5(C)C[C@H]6CC(F)(F)C[C@H]6C5)C(C)(C)C)n4)cc3)cc2)c[nH]1` [Compound P-152] was above 100 fold.
Take `COC(C)(C(=O)N[C@H](c1nc(-c2ccc(-c3ccc(-c4c[nH]c([C@@H](NC(=O)C(C)(OC)C5(O)CCC(F)(F)CC5)C(C)(C)C)n4)cc3)cc2)c[nH]1)C(C)(C)C)C1(O)CCC(F)(F)CC1` (some centres unmarked) [Compound P-156]: the “Fold-Synergistic 1a (Q30E)” value was above 100 fold.
For `CC(C)(C)[C@H](NC(=O)C(C)(C)[C@]1(O)C[C@H]2CC(F)(F)C[C@H]2C1)c1nc(-c2ccc(-c3ccc(-c4c[nH]c([C@@H](NC(=O)C(C)(C)[C@]5(O)C[C@H]6CC(F)(F)C[C@H]6C5)C(C)(C)C)n4)cc3)cc2)c[nH]1` [Compound P-157], the “Fold-Synergistic 1a (Q30E)” value was above 100 fold.
On the same count and under the same terms, the value for `CC(C)(C)[C@H](NC(=O)C(C)(C)C1(O)CCOCC1)c1nc(-c2ccc(-c3ccc(-c4c[nH]c([C@@H](NC(=O)C(C)(C)C5(O)CCOCC5)C(C)(C)C)n4)cc3)cc2)c[nH]1` [Compound P-158] was above 100 fold.
Same read-out and setting: next, `CC(C)(C)[C@H](NC(=O)C(F)(F)C1(O)CCCCC1)c1nc(-c2ccc(-c3ccc(-c4c[nH]c([C@@H](NC(=O)C(F)(F)C5(O)CCCCC5)C(C)(C)C)n4)cc3)cc2)c[nH]1` [Compound P-159]: above 100 fold; `CC(C)(C)[C@H](NC(=O)C(C)(C)C1(O)CCCCC1)c1nc(-c2ccc(-c3ccc(-c4c[nH]c([C@@H](NC(=O)C(C)(C)C5(O)CCCCC5)C(C)(C)C)n4)cc3)cc2)c[nH]1` [Compound P-160]: above 100 fold.
Turning to `CC(C)(C)[C@H](NC(=O)C1(CF)CCCO1)c1nc(-c2ccc(-c3ccc(-c4c[nH]c([C@@H](NC(=O)C5(CF)CCCO5)C(C)(C)C)n4)cc3)cc2)c[nH]1` (some centres unmarked) [Compound P-161], the “Fold-Synergistic 1a (Q30E)” value is given as above 100 fold.
As to `CC(C)(C)[C@H](NC(=O)C1(C)OCCCC1(F)F)c1nc(-c2ccc(-c3ccc(-c4c[nH]c([C@@H](NC(=O)C5(C)OCCCC5(F)F)C(C)(C)C)n4)cc3)cc2)c[nH]1` (some centres unmarked) [Compound P-162], the “Fold-Synergistic 1a (Q30E)” value is listed as above 100 fold.
The same measure, in the same setting: the value for `CC(C)(C)[C@H](NC(=O)C(F)(F)C1(O)CCOCC1)c1nc(-c2ccc(-c3ccc(-c4c[nH]c([C@@H](NC(=O)C(F)(F)C5(O)CCOCC5)C(C)(C)C)n4)cc3)cc2)c[nH]1` [Compound P-163] was above 100 fold; that for `CC(C)(C)[C@H](NC(=O)C(F)(F)C1(O)CCCC1)c1nc(-c2ccc(-c3ccc(-c4c[nH]c([C@@H](NC(=O)C(F)(F)C5(O)CCCC5)C(C)(C)C)n4)cc3)cc2)c[nH]1` [Compound P-164] was above 100 fold.
Take `CC(C)(C)[C@H](NC(=O)C(F)(F)C1(O)CCC1)c1nc(-c2ccc(-c3ccc(-c4c[nH]c([C@@H](NC(=O)C(F)(F)C5(O)CCC5)C(C)(C)C)n4)cc3)cc2)c[nH]1` [Compound P-165]: the “Fold-Synergistic 1a (Q30E)” value was above 100 fold.
Still for that read-out and setting: the value for `CC(C)(C)[C@H](NC(=O)C(F)(F)C1CCCCO1)c1nc(-c2ccc(-c3ccc(-c4c[nH]c([C@@H](NC(=O)C(F)(F)C5CCCCO5)C(C)(C)C)n4)cc3)cc2)c[nH]1` (some centres unmarked) [Compound P-166] was above 100 fold.
Consider `COC1(C(F)(F)C(=O)N[C@H](c2nc(-c3ccc(-c4ccc(-c5c[nH]c([C@@H](NC(=O)C(F)(F)C6(OC)CCCCC6)C(C)(C)C)n5)cc4)cc3)c[nH]2)C(C)(C)C)CCCCC1` [Compound P-167], for which the “Fold-Synergistic 1a (Q30E)” value is above 100 fold.
As for `CC(C)(C)[C@H](NC(=O)C(F)(F)C(O)c1ccccc1)c1nc(-c2ccc(-c3ccc(-c4c[nH]c([C@@H](NC(=O)C(F)(F)C(O)c5ccccc5)C(C)(C)C)n4)cc3)cc2)c[nH]1` (some centres unmarked) [Compound P-168], the “Fold-Synergistic 1a (Q30E)” value was above 100 fold.
